Data from publication PMC5421785, “Citrullination only infrequently impacts peptide binding to HLA class II MHC” (PLoS ONE, 2017).
Like-named read-outs stand apart in the source and are kept apart here. Square brackets hold non-standard residues; d marks the D form. Peptide text beside a SMILES is read from it. Cit = NC(=O)NCCC[C@H](N)C(=O)O

Assays:
[1] = target: T1, HLA-DRB1*04:01 (Homo sapiens, UniProt P01903+P01911, A100K/A169T/F76Y/I96L/K127E/L162R/M171V/N62H/P40V/Q125Y/R42H/S133A/S149N/S66Y/V115G/V209L/W38E); assay: HLA class II peptide binding, inhibition of radiolabeled peptide binding to purified MHC; settings: read-out: DRB1*04:01 binding capacity, Cit peptide (IC50 nM)
T1 construct: EBV transformed homozygous cell lines were used as sources of MHC molecules; endogenous in cells; host or cells: EBV transformed homozygous cell lines

[2] = target: T2, HLA-DRB1*01:01 (Homo sapiens, UniProt P01903+P01911, A100R/D57E/F55L/F60I/F76Y/I96L/L162R/M171V/P40L/Q125E/R42F/V115G/Y59C); assay: as above; settings: read-out: DRB1*01:01 binding capacity, Cit peptide (IC50 nM)
T2 construct: EBV transformed homozygous cell lines were used as sources of MHC molecules; endogenous in cells; host or cells: EBV transformed homozygous cell lines

[3] = citrullinated 15-mer peptide (X = citrulline), purified HLA-DRB1*04:01
[4] = citrullinated 15-mer peptide (X = citrulline), purified HLA-DRB1*01:01
[5] = citrullinated 15-mer (X), purified MHC, inhibition of radiolabeled peptide binding, dash = IC50 >40,000 nM

CC[C@H](C)[C@H](NC(=O)[C@H](CCCNC(N)=O)NC(=O)[C@H](CO)NC(=O)[C@H](CCC(=O)O)NC(=O)[C@H](CCC(=O)O)NC(=O)CNC(=O)[C@H](CCC(=O)O)NC(=O)[C@H](CC(C)C)NC(=O)[C@H](CC(C)C)NC(=O)[C@H](CCCCN)NC(=O)[C@@H](N)CCCNC(=N)N)C(=O)N[C@@H](CO)C(=O)N[C@@H](CC(C)C)C(=O)N1CCC[C@H]1C(=O)N[C@@H](CC(C)C)C(=O)O [RKLLEGEESXISLPL]
IC50 [1, 3]: 1200 nM
IC50 [2, 4]: 1320 nM

CC(C)C[C@H](NC(=O)[C@H](CC(C)C)NC(=O)[C@H](CCCNC(N)=O)NC(=O)[C@@H](NC(=O)CNC(=O)[C@@H]1CCCN1C(=O)[C@@H](NC(=O)[C@H](CO)NC(=O)[C@H](CO)NC(=O)[C@@H](N)CCCNC(=N)N)C(C)C)C(C)C)C(=O)N[C@@H](CCC(N)=O)C(=O)N[C@@H](CC(=O)O)C(=O)N[C@@H](CO)C(=O)N[C@H](C(=O)N[C@@H](CC(=O)O)C(=O)O)C(C)C [RSSVPGVXLLQDSVD] (H-RSSVPGV[Cit]LLQDSVD-OH)
IC50 [1, 5]: 8950 nM
IC50 [2, 5]: 1310 nM

CC(C)C[C@H](NC(=O)[C@H](C)NC(=O)[C@H](CO)NC(=O)CNC(=O)[C@H](CC(C)C)NC(=O)[C@H](CO)NC(=O)[C@H](Cc1ccc(O)cc1)NC(=O)[C@@H](NC(=O)[C@@H](N)CCCNC(=N)N)[C@@H](C)O)C(=O)N[C@@H](CCCNC(=N)N)C(=O)N1CCC[C@H]1C(=O)N[C@@H](CO)C(=O)N[C@H](C(=O)N[C@@H](CO)C(=O)N[C@@H](CCCNC(N)=O)C(=O)O)[C@@H](C)O [RTYSLGSALRPSTSX] (H-RTYSLGSALRPSTS[Cit]-OH)
IC50 [1, 5]: 1090 nM
IC50 [2, 5]: 21 nM

CC(C)C[C@H](NC(=O)[C@H](C)NC(=O)[C@H](CO)NC(=O)CNC(=O)[C@H](CC(C)C)NC(=O)[C@H](CO)NC(=O)[C@H](Cc1ccc(O)cc1)NC(=O)[C@@H](NC(=O)[C@@H](N)CCCNC(=N)N)[C@@H](C)O)C(=O)N[C@@H](CCCNC(N)=O)C(=O)N1CCC[C@H]1C(=O)N[C@@H](CO)C(=O)N[C@H](C(=O)N[C@@H](CO)C(=O)N[C@@H](CCCNC(=N)N)C(=O)O)[C@@H](C)O [RTYSLGSALXPSTSR] (H-RTYSLGSAL[Cit]PSTSR-OH)
IC50 [1, 5]: 1100 nM
IC50 [2, 5]: 14 nM

CC(C)C[C@H](NC(=O)CNC(=O)[C@H](C)NC(=O)[C@H](Cc1ccccc1)NC(=O)[C@H](C)NC(=O)[C@@H](N)CO)C(=O)NCC(=O)N1CCC[C@H]1C(=O)N[C@@H](CCCNC(N)=O)C(=O)N[C@@H](CCC(=O)O)C(=O)N[C@@H](CCCCN)C(=O)NCC(=O)N1CCC[C@H]1C(=O)N[C@@H](CC(=O)O)C(=O)N1CCC[C@H]1C(=O)O [SAFAGLGPXEKGPDP] (H-SAFAGLGP[Cit]EKGPDP-OH)
IC50 [1, 3]: 6400 nM
IC50 [2, 4]: 35 nM

CC(C)C[C@H](NC(=O)[C@H](CC(C)C)NC(=O)[C@H](CCCNC(N)=O)NC(=O)[C@@H](NC(=O)CNC(=O)[C@@H]1CCCN1C(=O)[C@@H](NC(=O)[C@H](CO)NC(=O)[C@H](CO)NC(=O)[C@H](CCCNC(=N)N)NC(=O)[C@H](CC(C)C)NC(=O)[C@H](CCCNC(=N)N)NC(=O)[C@@H](NC(=O)[C@H](C)NC(=O)[C@@H](N)CO)C(C)C)C(C)C)C(C)C)C(=O)O [SAVRLRSSVPGVXLL] (H-SAVRLRSSVPGV[Cit]LL-OH)
IC50 [1, 5]: 641 nM
IC50 [2, 5]: 9.7 nM

CC(C)C[C@H](NC(=O)[C@H](CC(C)C)NC(=O)[C@H](CCCNC(=N)N)NC(=O)[C@@H](NC(=O)CNC(=O)[C@@H]1CCCN1C(=O)[C@@H](NC(=O)[C@H](CO)NC(=O)[C@H](CO)NC(=O)[C@H](CCCNC(N)=O)NC(=O)[C@H](CC(C)C)NC(=O)[C@H](CCCNC(=N)N)NC(=O)[C@@H](NC(=O)[C@H](C)NC(=O)[C@@H](N)CO)C(C)C)C(C)C)C(C)C)C(=O)O [SAVRLXSSVPGVRLL] (H-SAVRL[Cit]SSVPGVRLL-OH)
IC50 [1, 5]: 11 nM
IC50 [2, 5]: 0.7 nM
